Results published in publication PMC9870890 (Nature Communications, 2023).
Substitutions are numbered along the chain they refer to. Where “and” joins values, the source holds several entries; their conditions need not be identical. Equal entries are not always repeated. Where two headings read alike, the source gives them in different places.

What was measured:
M2R = target: T1, M2R (Homo sapiens, UniProt P08172); test: cell-based; conditions: for Emax: HEK-293T
T1 sequence (P08172 1-466): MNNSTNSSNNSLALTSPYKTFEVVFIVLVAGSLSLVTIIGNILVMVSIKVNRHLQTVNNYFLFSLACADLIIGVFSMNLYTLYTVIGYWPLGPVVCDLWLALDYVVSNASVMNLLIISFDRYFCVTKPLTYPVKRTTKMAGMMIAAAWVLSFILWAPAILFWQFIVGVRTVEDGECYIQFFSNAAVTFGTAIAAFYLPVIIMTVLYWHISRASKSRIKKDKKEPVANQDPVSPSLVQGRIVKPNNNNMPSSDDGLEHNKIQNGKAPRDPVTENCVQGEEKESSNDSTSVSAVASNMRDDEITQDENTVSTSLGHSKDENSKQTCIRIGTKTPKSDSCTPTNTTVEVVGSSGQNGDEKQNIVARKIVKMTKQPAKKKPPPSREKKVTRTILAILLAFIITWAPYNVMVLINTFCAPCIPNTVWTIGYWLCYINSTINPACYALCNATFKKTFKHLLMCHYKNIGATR

M2RFL△9M_K383M = target: T2, M2RFL△9M_K383M (Homo sapiens, UniProt P08172, K383M/M139L/M142L/M143L/M1T/M248L/M296L/M368L/M456T/M45L); test: [3H]-NMS competition binding (ACh competition, GoA titration), engineered construct; design: unit not given here
T2 construct: we used the full-length M2R (M2RFL) with mutations at the three native methionines in ICL3; FLAG; His; made in house; host or cells: Sf9 membranes
T2 sequence (P08172 1-466 M1T/M45L/M139L/M142L/M143L/M248L/M296L/M368L/K383M/M456T): T1 sequence (P08172 1-466) with M1T, M45L, M139L, M142L, M143L, M248L, M296L, M368L, K383M, M456T
Procedure: Purified M2R receptor was reconstituted into high-density lipoprotein (HDL) particles constituting apolipoprotein A1(APOA1) and mixture of POPG: POPC lipids with 3:2 (mol:mol)ratio as previously described. […] Membranes or HDL particles were separated from excess [^3H]-NMS by Whatman GF/B filters using a Brandel 48-well harvester. The bound radioligand were read on a liquid scintillation counter (MicroBeta Jet, PerkinElmer). Data were analyzed by GraphPad Prism 9.2.0. […]
Data are given as mean
± SEM from 3 independent experiments.
M2RFL△9M_K383M and M2RFL_WT.
SEM from 3 independent experiments. […]

With `C[N+](C)(C)CC#CCOC1=NOCC1` [Ixo, iperoxo] the EC50 (M2R) was 0.31 ± 0.043 nM, the Emax (M2R; read-out: Emax in % of acetylcholin, IP accumulation by iperoxo, agonist (absence of LY2119620)) was 115% and the Emax (M2R; read-out: Emax in % of acetylcholin, IP accumulation by iperoxo, agonist + 0.1 µM LY) was 111%. It also gave an Emax (M2R; read-out: Emax in % of acetylcholin, IP accumulation by iperoxo, agonist + 1 µM LY) of 105%, an Emax (M2R; read-out: Emax in % of acetylcholin, IP accumulation by iperoxo, agonist + 3 µM LY) of 104% and an Emax (M2R; read-out: Emax in % of acetylcholin, IP accumulation by iperoxo, agonist + 10 µM LY) of 104%. The Emax (M2R; read-out: Emax in % of acetylcholin, IP accumulation by iperoxo, agonist + 100 µM LY) was 102%, the Emax (M2R; read-out: IP accumulation as % max effect of acetylcholin, iperoxo log [M] 3-8, 1µM LY2119620) was 103% and the Emax (M2R; read-out: IP accumulation as % max effect of acetylcholin, iperoxo log [M] 3-8, 3µM LY2119620) was 102%. It also gave an Emax (M2R; read-out: IP accumulation as % max effect of acetylcholin, iperoxo log [M] 3-8, 10µM LY2119620) of 99.3%, an Emax (M2R; read-out: IP accumulation as % max effect of acetylcholin, iperoxo log [M] 3-8, 100µM LY2119620) of 98.3% and an Emax (M2R; read-out: IP accumulation as % max effect of acetylcholin, iperoxo log [M] 3-8, no LY2119620) of 111%. The Emax (M2R; read-out: IP accumulation as % max effect of acetylcholin, iperoxo log [M] 3-9, 0.1µM LY2119620) was 122%, the Emax (M2R; read-out: IP accumulation as % max effect of acetylcholin, iperoxo log [M] 3-9, 1µM LY2119620) was 104% and the Emax (M2R; read-out: IP accumulation as % max effect of acetylcholin, iperoxo log [M] 3-9, 3µM LY2119620) was 106%. The Emax (M2R; read-out: IP accumulation as % max effect of acetylcholin, iperoxo log [M] 3-9, 10µM LY2119620) was 98.3%, the Emax (M2R; read-out: IP accumulation as % max effect of acetylcholin, iperoxo log [M] 3-9, 30µM LY2119620) was 87.5% and the Emax (M2R; read-out: IP accumulation as % max effect of acetylcholin, iperoxo log [M] 3-9, 100µM LY2119620) was 106%. For the same molecule, the Emax (M2R; read-out: IP accumulation as % max effect of acetylcholin, iperoxo log [M] 3-9, no LY2119620) was 113%, the Emax (M2R; read-out: IP accumulation as % max effect of acetylcholin, iperoxo log [M] 3-10, 0.1µM LY2119620) was 85.3% and the Emax (M2R; read-out: IP accumulation as % max effect of acetylcholin, iperoxo log [M] 3-10, 1µM LY2119620) was 100%. For the same molecule, the Emax (M2R; read-out: IP accumulation as % max effect of acetylcholin, iperoxo log [M] 3-10, 3µM LY2119620) was 104%, the Emax (M2R; read-out: IP accumulation as % max effect of acetylcholin, iperoxo log [M] 3-10, 10µM LY2119620) was 106% and the Emax (M2R; read-out: IP accumulation as % max effect of acetylcholin, iperoxo log [M] 3-10, 100µM LY2119620) was 104%. The Emax (M2R; read-out: IP accumulation as % max effect of acetylcholin, iperoxo log [M] 3-11, 0.1µM LY2119620) was 26.4%, the Emax (M2R; read-out: IP accumulation as % max effect of acetylcholin, iperoxo log [M] 3-11, 10µM LY2119620) was 94.8% and the Emax (M2R; read-out: IP accumulation as % max effect of acetylcholin, iperoxo log [M] 3-12, 0.1µM LY2119620) was 12.3%. The Emax (M2R; read-out: IP accumulation as % max effect of acetylcholin, iperoxo log [M] 3-12, 1µM LY2119620) was 35.6%, the Emax (M2R; read-out: IP accumulation as % max effect of acetylcholin, iperoxo log [M] 3-12, 100µM LY2119620) was 80.3% and the Emax (M2R; read-out: IP accumulation as % max effect of acetylcholin, iperoxo log [M] -6, 0.1µM LY2119620) was 108%. The Emax (M2R; read-out: IP accumulation as % max effect of acetylcholin, iperoxo log [M] -6, 1µM LY2119620) was 101%, the Emax (M2R; read-out: IP accumulation as % max effect of acetylcholin, iperoxo log [M] -6, 3µM LY2119620) was 101% and the Emax (M2R; read-out: IP accumulation as % max effect of acetylcholin, iperoxo log [M] -6, 10µM LY2119620) was 104%. The Emax (M2R; read-out: IP accumulation as % max effect of acetylcholin, iperoxo log [M] -6, 30µM LY2119620) was 97%, the Emax (M2R; read-out: IP accumulation as % max effect of acetylcholin, iperoxo log [M] -6, 100µM LY2119620) was 104% and the Emax (M2R; read-out: IP accumulation as % max effect of acetylcholin, iperoxo log [M] -6, no LY2119620) was 102%. It also gave an Emax (M2R; read-out: IP accumulation as % max effect of acetylcholin, iperoxo log [M] -7, 0.1µM LY2119620) of 104%, an Emax (M2R; read-out: IP accumulation as % max effect of acetylcholin, iperoxo log [M] -7, 1µM LY2119620) of 104% and an Emax (M2R; read-out: IP accumulation as % max effect of acetylcholin, iperoxo log [M] -7, 3µM LY2119620) of 98.3%. It also gave an Emax (M2R; read-out: IP accumulation as % max effect of acetylcholin, iperoxo log [M] -7, 10µM LY2119620) of 101%, an Emax (M2R; read-out: IP accumulation as % max effect of acetylcholin, iperoxo log [M] -7, 100µM LY2119620) of 102% and an Emax (M2R; read-out: IP accumulation as % max effect of acetylcholin, iperoxo log [M] -7, no LY2119620) of 107%. For the same molecule, the Emax (M2R; read-out: IP accumulation as % max effect of acetylcholin, iperoxo log [M] -8, 0.1µM LY2119620) was 113%, the Emax (M2R; read-out: IP accumulation as % max effect of acetylcholin, iperoxo log [M] -8, 3µM LY2119620) was 106% and the Emax (M2R; read-out: IP accumulation as % max effect of acetylcholin, iperoxo log [M] -8, 10µM LY2119620) was 102%. It also gave an Emax (M2R; read-out: IP accumulation as % max effect of acetylcholin, iperoxo log [M] -8, no LY2119620) of 112%, an Emax (M2R; read-out: IP accumulation as % max effect of acetylcholin, iperoxo log [M] -9, 1µM LY2119620) of 108% and an Emax (M2R; read-out: IP accumulation as % max effect of acetylcholin, iperoxo log [M] -9, 10µM LY2119620) of 106%. The Emax (M2R; read-out: IP accumulation as % max effect of acetylcholin, iperoxo log [M] -9, 100µM LY2119620) was 108%, the Emax (M2R; read-out: IP accumulation as % max effect of acetylcholin, iperoxo log [M] -10, 3µM LY2119620) was 100% and the Emax (M2R; read-out: IP accumulation as % max effect of acetylcholin, iperoxo log [M] -10, 10µM LY2119620) was 101%. For the same molecule, the Emax (M2R; read-out: IP accumulation as % max effect of acetylcholin, iperoxo log [M] -12, 100µM LY2119620) was 94.6%, the Emax (M2R; read-out: IP accumulation as % max effect of acetylcholin, iperoxo log [M] -14, 0.1µM LY2119620) was 18.7% and the Emax (M2R; read-out: IP accumulation as % max effect of acetylcholin, iperoxo log [M] -14, 30µM LY2119620) was 79.3%. It also gave an Emax (M2R; read-out: IP accumulation as % max effect of acetylcholin, iperoxo log [M] -14, 100µM LY2119620) of 78.3%.

`CC(=O)OCC[N+](C)(C)C` [ACh, acetylcholine] was tested, and the “ACh competition curve data, Supplementary Fig. 4c” value (shortened to “ACh competition curve data”) (M2RFL△9M_K383M; log[M] (ACh) -3) was 3.636 and 3.347 and 4.163, the “ACh competition curve data” value (M2RFL△9M_K383M; log[M] (ACh) -4) was 19.7375 and 21.0617 and 22.4385 and the “ACh competition curve data” value (M2RFL△9M_K383M; log[M] (ACh) -5) was 66.4796 and 63.8048 and 73.8724. For the same molecule, the “ACh competition curve data” value (M2RFL△9M_K383M; log[M] (ACh) -6) was 76.3279 and 99.6814 and 101.207, the “ACh competition curve data” value (M2RFL△9M_K383M; log[M] (ACh) -7) was 102.154 and 99.3043 and 98.5413 and the “ACh competition curve data” value (M2RFL△9M_K383M; log[M] (ACh) -8) was 82.4578 and 100.655 and 103.084.
